Results reported in patent publication US20240279205A1, “NOVEL BENZIMIDAZOLE DERIVATIVE” (Carna Biosciences, Inc., priority 2020, published 2024).
Structures can show the parent of a compound that is named as a salt.

Molecular target: T1, human STING (hSTING) (Homo sapiens, UniProt Q86WV6)
T1 construct: host or cells: HEK-Blue ISG cells (HEK293-derived SEAP reporter line)
Experiment: Inhibition test of intracellular human STING (hSTING) pathway using SEAP reporter cells (HEK-Blue ISG), stimulation with Compound 3
Type: cell-based
Set-up: hSTING inhibitory activity: scale not given here
Conditions: Compound 3 10 nM stimulation, 21 hours
Protocol: Inhibition test of intracellular human STING (hSTING) pathway using reporter cells
Since STING activates the transcription factor IRF3 upon ligand stimulation, the activity of STING can be evaluated by a reporter assay using a secretory alkaline phosphatase (SEAP reporter) integrated downstream of an IRF-inducible promoter.
That is, the hSTING inhibitory activity of the test compound was evaluated using HEK-Blue™MISG cells (manufactured by Invivogen, #hkb-isg-1) incorporating a SEAP reporter. Activation of hSTING was performed by stimulation with the small molecule ligand Compound 3 as described in the literature (Ramanjulu, J. M., et al., Nature. 2018, 564 (7736), 439-443). HEK-Blue™MISG cells were seeded in a 96-well plate and cultured overnight at 37° C. in a 5% CO2 incubator. To each well of this cell culture plate, a test compound solution adjusted to a final concentration of 0.1 to 10 µM of the test compound was added, cultured for 1 hour in a CO2 incubator, and then Compound 3 (final concentration 10 nM) was added and further cultured in a CO2 incubator for 21 hours. After collecting the culture supernatant of each well, the reporter activity was measured by color development reaction with alkaline phosphatase.
The reporter activity of the test compound non-addition and Compound 3 addition group was set to 100%, and the reporter activity of the test compound non-addition and Compound 3 non-addition group was set to 0%. The IC50 value was determined by regression analysis of the inhibitory rate determined from the reporter activity at each compound concentration and the test compound concentration (logarithm).

T1 sequence (Q86WV6 whole entry H232R): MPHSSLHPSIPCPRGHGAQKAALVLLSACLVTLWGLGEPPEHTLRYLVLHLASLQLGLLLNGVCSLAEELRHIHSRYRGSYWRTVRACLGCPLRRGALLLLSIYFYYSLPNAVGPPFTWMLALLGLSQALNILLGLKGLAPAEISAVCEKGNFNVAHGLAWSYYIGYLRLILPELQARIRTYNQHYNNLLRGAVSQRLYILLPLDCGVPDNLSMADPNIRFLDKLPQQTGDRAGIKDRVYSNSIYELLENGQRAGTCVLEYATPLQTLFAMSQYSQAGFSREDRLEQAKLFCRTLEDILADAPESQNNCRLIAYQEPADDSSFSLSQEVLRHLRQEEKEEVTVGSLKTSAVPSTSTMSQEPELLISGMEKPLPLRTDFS

Row | Compound | hSTING inhibitory activity
1 | COC(=O)c1ccc2[nH]c(Nc3c[nH]c4ccc(Br)nc34)nc2c1 [Embodiment 34, methyl 2-[(5-bromo-1H-pyrrolo[3,2-b]pyridin-3-yl)amino]-1H-benzo[d]imidazole-5-carboxylate] | * *
2 | Cn1c(Nc2c[nH]c3ccc(Br)cc23)nc2ccc(Oc3ccccc3)cc21 [Embodiment 39, N-(5-bromo-1H-indol-3-yl)-1-methyl-6-phenoxy-1H-benzo[d]imidazol-2-amine] | * *
3 | Cn1c(Nc2c[nH]c3ccc(Br)nc23)nc2ccc(Oc3ccccc3)cc21 [Embodiment 40, N-(5-bromo-1H-pyrrolo[3,2-b]pyridin-3-yl)-1-methyl-6-phenoxy-1H-benzo[d]imidazol-2-amine] | * * *
4 | Cn1c(Nc2c[nH]c3ccc(Br)nc23)nc2cc(Oc3ccccc3)ccc21 [Embodiment 41, N-(5-bromo-1H-pyrrolo[3,2-b]pyridin-3-yl)-1-methyl-5-phenoxy-1H-benzo[d]imidazol-2-amine] | * * *
5 | Cn1c(Nc2c[nH]c3ccc(Br)nc23)nc2cc(C(F)(F)F)ccc21 [Embodiment 43, N-(5-bromo-1H-pyrrolo[3,2-b]pyridin-3-yl)-1-methyl-5-(trifluoromethyl)-1H-benzo[d]imidazol-2-amine] | * * *
6 | c1ccc(Oc2ccc3[nH]c(Nc4c[nH]c5cc(-c6ccccc6)cnc45)nc3c2)cc1 [Embodiment 51, 5-phenoxy-N-(6-phenyl-1H-pyrrolo[3,2-b]pyridin-3-yl)-1H-benzo[d]imidazol-2-amine] | * *
7 | FC(F)(F)c1ccc2[nH]cc(Nc3nc4cc(Oc5ccccc5)ccc4[nH]3)c2n1 [Embodiment 55, 5-phenoxy-N-[5-(trifluoromethyl)-1H-pyrrolo[3,2-b]pyridin-3-yl]-1H-benzo[d]imidazol-2-amine] | * *
8 | Brc1ccc2[nH]cc(Nc3nc4c(-c5ccccc5)cccc4[nH]3)c2n1 [Embodiment 62, N-(5-bromo-1H-pyrrolo[3,2-b]pyridin-3-yl)-4-phenyl-1H-benzo [d]imidazol-2-amine] | * *
9 | Cn1nccc1Oc1ccc2[nH]c(Nc3c[nH]c4ccc(Br)nc34)nc2c1 [Embodiment 63, N-(5-bromo-1H-pyrrolo[3,2-b]pyridin-3-yl)-5-[(1-methyl-1H-pyrazol-5-yl)oxy]-1H-benzo[d] imidazol-2-amine] | * *
10 | CN(C)c1cccc(Oc2ccc3[nH]c(Nc4c[nH]c5ccc(Br)nc45)nc3c2)c1 [Embodiment 65, N-(5-bromo-1H-pyrrolo[3,2-b]pyridin-3-yl)-5-[3-(dimethylamino)phenoxy]-1H-benzo[d]imidazol-2-amine] | * *
11 | CS(=O)(=O)c1cccc(Oc2ccc3[nH]c(Nc4c[nH]c5ccc(Br)nc45)nc3c2)c1 [Embodiment 67, N-(5-bromo-1H-pyrrolo[3,2-b]pyridin-3-yl)-5-[3-(methylsulfonyl)phenoxy]-1H-benzo[d]imidazol-2-amine] | * *
12 | Brc1ccc2[nH]cc(Nc3nc4cc(OCc5ccccc5)ccc4[nH]3)c2n1 [Embodiment 69, 5-(benzyloxy)-N-(5-bromo-1H-pyrrolo[3,2-b]pyridin-3-yl)-1H-benzo[d]imidazol-2-amine] | * *
13 | Cn1cc(-c2ccnc3c(Nc4nc5cc(Oc6ccccc6)ccc5[nH]4)c[nH]c23)cn1 [Embodiment 71, N-[7-(1-methyl-1H-pyrazol-4-yl)-1H-pyrrolo[3,2-b]pyridin-3-yl]-5-phenoxy-1H-benzo[d]imidazole-2-amine formate] | * *
14 | CN(c1ccccc1)S(=O)(=O)c1ccc2[nH]c(Nc3c[nH]c4ccc(Cl)nc34)nc2c1 [Embodiment 75, 2-[(5-Chloro-1H-pyrrolo[3,2-b]pyridin-3-yl)amino]-N-methyl-N-phenyl-1H-benzo[d]imidazole-5-sulfonamide] | * *

Same assay, conditions: Compound 3 10 nM stimulation, 21 hours, read-out: hSTING inhibitory activity

Row | Compound | IC50 [µM]
15 | O=C(O)c1ccc2[nH]c(Nc3c[nH]c4ccc(Br)nc34)nc2c1 [Embodiment 37, 2-[(5-bromo-1H-pyrrolo[3,2-b]pyridin-3-yl)amino]-1H-benzo[d]imidazole-5-carboxylic acid] | ≥ 10
16 | Cn1c(Nc2c[nH]c3ccc(Br)nc23)nc2ccc(C(F)(F)F)cc21 [Embodiment 42, N-(5-bromo-1H-pyrrolo[3,2-b]pyridin-3-yl)-1-methyl-6-(trifluoromethyl)-1H-benzo[d]imidazol-2-amine] | ≥ 10
17 | Cn1c(Nc2c[nH]c3ccc(Cl)nc23)nc2ccc(C(F)(F)F)cc21 [Embodiment 46, N-(5-Chloro-1H-pyrrolo[3,2-b]pyridin-3-yl)-1-methyl-6-(trifluoromethyl)-1H-benzo[d] imidazol-2-amine] | ≥ 10
18 | C1=C(c2ccc3[nH]cc(Nc4nc5cc(Oc6ccccc6)ccc5[nH]4)c3n2)CCCC1 [Embodiment 48, N-[5-(Cyclohex-1-en-1-yl)-1H-pyrrolo[3,2-b]pyridin-3-yl]-5-phenoxy-1H-benzo[d]imidazol-2-a mine] | 1 to 10
19 | Brc1cnc2c(Nc3nc4cc(Oc5ccccc5)ccc4[nH]3)c[nH]c2c1 [Embodiment 49, N-(6-bromo-1H-pyrrolo[3,2-b]pyridin-3-yl)-5-phenoxy-1H-benzo[d]imidazol-2-amine] | 1 to 10
20 | COc1cccc2[nH]c(Nc3c[nH]c4ccc(Br)nc34)nc12 [Embodiment 61, N-(5-bromo-1H-pyrrolo[3,2-b]pyridin-3-yl)-4-methoxy-1H-benzo[d]imidazol-2-amine] | 1 to 10
21 | CS(=O)(=O)c1ccc(Oc2ccc3[nH]c(Nc4c[nH]c5ccc(Br)nc45)nc3c2)cc1 [Embodiment 66, N-(5-bromo-1H-pyrrolo[3,2-b]pyridin-3-yl)-5-[4-(methylsulfonyl)phenoxy]-1H-benzo[d]imidazol-2-amine] | 1 to 10
22 | CS(=O)(=O)c1ccccc1Oc1ccc2[nH]c(Nc3c[nH]c4ccc(Br)nc34)nc2c1 [Embodiment 68, N-(5-bromo-1H-pyrrolo[3,2-b]pyridin-3-yl)-5-[2-(methylsulfonyl)phenoxy]-1H-benzo[d]imidazol-2-amine] | ≥ 10
23 | CN(C)c1ccnc2c(Nc3nc4cc(Oc5ccccc5)ccc4[nH]3)c[nH]c12 [Embodiment 70, N7,N7-dimethyl-N3-(5-phenoxy-1H-benzo[d]imidazol-2-yl)-1H-pyrrolo[3,2-b]pyridine-3,7-diamine formate] | ≥ 10
24 | FC(F)(F)c1cnc2[nH]cc(Nc3nc4cc(Oc5ccccc5)ccc4[nH]3)c2c1 [Embodiment 74, 5-phenoxy-N-[5-(trifluoromethyl)-1H-pyrrolo[2,3-b]pyridin-3-yl]-1H-benzo[d]imidazol-2-amine formate] | 1 to 10
25 | Oc1ccnc2c(Nc3nc4cc(Oc5ccccc5)ccc4[nH]3)c[nH]c12 [Embodiment 76, 3-[(5-phenoxy-1H-benzo[d]imidazol-2-yl)amino]-1H-pyrrolo [3,2-b]pyridin-7-ol formate] | ≥ 10
26 | CN(C)Cc1cccc(Oc2ccc3[nH]c(Nc4c[nH]c5ccc(Cl)nc45)nc3c2)c1 [Embodiment 81, N-(5-chloro-1H-pyrrolo[3,2-b]pyridin-3-yl)-5-{3-[(dimethylamino)methyl]phenoxy}-1H-benzo [d]imidazole-2-amine formate] | 1 to 10
